According to patent US5629304A, “Therapeutic agent for thrombocytopenia and indolocarbazole derivatives” (Kyowa Hakko Kogyo Co., Ltd., priority 1994, dated 1997):

Key:
[1] = system: megakaryocyte colony formation (bone marrow cells); assay: Megakaryocyte colony formation-stimulating activity; format: cell-based, BALB/c mouse; conditions: control (IL-3 alone) defined as 100, IL-3 100 U/ml, 7 days
Procedure: Megakaryocyte colony formation-stimulating activity
An eight-weeks-old BALB/c mouse was killed. Its femurs and cervical vertebrae were taken out, and both end sections thereof were cut off. Bone marrow cells were collected from the pieces cut off from the femurs and cervical vertebrae using a syringe containing IMDM (430-2200EA prepared by Gibco Co.), and then blown into a test tube. The test tube was allowed to stand for 5 minutes, and the supernatant was collected with a pipet. To a reaction mixture comprising the bone marrow cells (50,000 cells), bovine serum albumin (2%: A4508 made by Sigma Co.), transferrin (600 μg/ml: 652202 made by Boehringer Mannheim Co.), IL-3 (100 U/ml), cholesterol (16 μg/ml: 036-0641 made by Wako Co.) and agar (0.6%: 0142-02 made by Difco Laboratories) were separately added the test compounds at various concentrations, and 1 ml each of the mixtures was put into a 35-mm dish (Lux Co.), followed by incubation under the conditions of 37° C., 5% CO2 and a humidity of 95% or more for 7 days. Separately, IL-3 alone was added to the bone marrow cells to prepare a control. After the incubation was completed, the agar was dried over a filter paper (1001-055 made by Whatman Co.) and then fixed with 2.5% glutaraldehyde, followed by acetylcholinesterase staining (ACHE staining).
The ACHE staining was carried out by the method described below.
ACHE staining: To each sample was added a solution comprising 0.67 mg/ml acetylthiocholine iodide, 2.94 mg/ml sodium citrate, 7.5 mg/ml copper (II) sulfate and 1.65 mg/ml potassium ferricyanide, and the mixture was allowed to stand at room temperature in the dark for 4-6 hours.
A group of 4 or more megakaryocytes which were stained reddish brown was regarded as a colony, and the number of colonies per dish was calculated using a microscope. The results are shown in Table 2 as relative values to the control.

platelets = assay: Platelet Production-Stimulating Activity in Mice; format: in vivo, BALB/c mice; conditions: day 1 to 5, blood on day 15, vs solvent control
Excerpt: Platelet Production-Stimulating Activity in Mice
A test compound was intraperitoneally administered to four 7-week-old male BALB/c mice per group once a day for consecutive 5 days (day 1 to day 5). A control group (4 mice per group) received only the solvent (5% Tween 80/water). The blood was collected from the fundus oculi vein of each animal on the 15th day from the start of administration (day 15), and the number of the platelets was counted with a microcell counter (Model CC-180A, manufactured by Toa Iryo Denshi Co.). The rate of increase of the number of platelets in the test group (average) over the control (average) was calculated according to the following formula to evaluate the effect of the test compound.
A: the number of platelets in test group
B: the number of platelets in control group

| SMILES | Rel. Value (megakaryocyte colonies per dish relative to the control) ([1]; 1 nM) | also measured |
| --- | --- | --- |
| O=C1NCc2c1c1c3ccccc3[nH]c1c1c2c2ccccc2n1CCCN1CCOCC1 [Compound 88] | 120 | – |
| O=C1NCc2c1c1c3ccccc3n(Cc3ccccc3)c1c1c2c2ccccc2n1Cc1ccccc1 [Compound 90] | – | Rel. Value (megakaryocyte colonies per dish relative to the control) ([1]; 10 nM): 106 |
| CN1Cc2c(c3c4ccccc4n(Cc4ccc(N(C)C)cc4)c3c3c2c2ccccc2n3Cc2ccc(N(C)C)cc2)C1=O [Compound 20] | 140 | – |
| CNCCCn1c2ccccc2c2c3c(c4c5ccccc5n(C)c4c21)C(=O)N(C)C3=O [Compound 26] | 117 | – |
| CN1C(=O)c2c(c3c4ccccc4n(CC(O)CO)c3c3[nH]c4ccccc4c23)C1=O (stereo not drawn) [Compound 83] | 111 | – |
| CCN(CC)CCCn1c2ccccc2c2c3c(c4c5ccccc5n(C)c4c21)C(=O)N(C)C3=O [Compound 27] | – | Rate of increase (number of platelets, A/B×100) (platelets; 40 mg/kg i.p. once a day): 187% |
| CCN(CC)CCCn1c2ccc(Br)cc2c2c3c(c4c5cc(Br)ccc5n(C)c4c21)C(=O)N(C)C3=O [Compound 110] | 137 | Rate of increase (number of platelets, A/B×100) (platelets; 40 mg/kg i.p. once a day): 184% |
| O=C1c2c(c3c4ccccc4[nH]c3c3[nH]c4ccccc4c23)CN1C1CCCCO1 (stereo not drawn) [Compound 89] | 110 | – |
| CCOC(=O)Cn1c2ccccc2c2c3c(c4c5ccccc5n(CC(=O)OCC)c4c21)C(=O)NC3 [Compound 85] | 125 | – |
| CN1C(=O)c2c(c3c4ccccc4n(CC(O)CO)c3c3c2c2ccccc2n3CC(O)CO)C1=O (stereo not drawn) [Compound 84] | – | Rel. Value (megakaryocyte colonies per dish relative to the control) ([1]; 10 nM): 132 |
| CCCN(C)CCCn1c2ccccc2c2c3c(c4c5ccccc5n(C)c4c21)C(=O)N(C)C3=O [Compound 31] | – | Rate of increase (number of platelets, A/B×100) (platelets; 40 mg/kg i.p. once a day): 161% |
| C=CCn1c2ccccc2c2c3c(c4c5ccccc5[nH]c4c21)C(=O)N(C)C3=O [Compound 81] | – | Rel. Value (megakaryocyte colonies per dish relative to the control) ([1]; 10 nM): 113 |
| C=CCn1c2ccccc2c2c3c(c4c5ccccc5n(CC=C)c4c21)C(=O)N(C)C3=O [Compound 82] | 101 | – |
| CN1Cc2c(c3c4ccccc4[nH]c3c3[nH]c4ccccc4c23)C1=O [Compound 80] | 111 | – |
| CN1Cc2c(c3c4ccccc4n(C)c3c3c2c2ccccc2n3C)C1=O [Compound 9] | 128 | – |
| Cn1c2ccccc2c2c3c(c4c5ccccc5n(C)c4c21)C(=O)NC3 [Compound 91] | 111 | – |
| CN(C)CCCn1c2ccccc2c2c3c(c4c5ccccc5n(C)c4c21)C(=O)N(C)C3=O [Compound 25] | – | Rate of increase (number of platelets, A/B×100) (platelets; 20 mg/kg i.p. once a day): 151% |
| O=C1NCc2c1c1c3ccccc3n(CCCO)c1c1c2c2ccccc2n1CCCO [Compound 86] | 131 | – |
| CCN(CC)CCCn1c2ccc(O)cc2c2c3c(c4c5cc(O)ccc5n(C)c4c21)C(=O)N(C)C3=O [Compound 108] | – | Rate of increase (number of platelets, A/B×100) (platelets; 25 mg/kg i.p. once a day): 179% |
| CN1C(=O)C(c2c[nH]c3ccccc23)=C(c2c[nH]c3ccccc23)C1=O [Compound 93] | 109 | – |
